In patent publication US20260085101A1, “NOVEL PLATELET DERIVED GROWTH FACTOR PEPTIDE MIMETIC” (THE UNIVERSITY OF SYDNEY, priority 2022, published 2026):

Columns and labels:
C2C12 mouse myoblasts = experiment: Collagen gel contraction assay with C2C12 cells; type: cell-based; details: for collagen gel contracted to % of its initial surface area: 24-hour incubation, 10 ng/ml PDGF, 1 μg/ml peptides, 10 μM AG1296, mean (±SD); for difference in collagen gel area versus negative control AG1296 co-treated with PDGF−AB (Mean Diff.) / difference in collagen gel area versus no treatment control (Mean Diff.): 24 hours; for difference in collagen gel area versus negative control AG1296 co-treated with PDGF−AB (Mean Diff.): vs negative control (55.25%); for difference in collagen gel area versus no treatment control (Mean Diff.): vs no treatment control (41.27%)
Description: FIG. 3. Collagen Contraction of C2C12 Mouse Fibroblasts Treated with PDGF and peptides JC5 and JC5a. […] Error bars represent ±SD, n=8/4. The function of Compounds Ia (also referred to herein as JC5) and Ib (also referred to herein as JC5a) has been tested in vitro on the continuous cell line, C2C12 mouse myoblasts. In these in vitro assays recombinant PDGF−AB and −BB have been used as positive controls along with a serum starved no treatment control and the PDGF receptor inhibitor AG1296 co-treated with PDGF−AB as a negative control. The in vitro assays were designed to assess the major known functions of PDGF whilst also considering functions that are relevant to its in vivo applications. These functions were chemotaxis, collagen contraction, vascular tube formation and activation of the PDGF receptors via phosphorylation of Akt and Erk. Collagen contraction is an important function during wound healing of many tissues including the heart. This can be simulated in vitro using a collagen gel contraction assay. This was assessed using C2C12 cells treated with the positive controls 10 ng/ml recombinant PDGF-BB and PDGF−AB, negative control 10 μM AG1296 co-treated with 10 ng/ml recombinant PDGF−AB, a serum starved no treatment control and 1 μg/ml of the peptides JC5 and JC5a. C2C12 mouse myoblasts were seeded in a 3D collagen gel crosslinked with NaOH and incubated at 37° C. for 24 hours following treatment with the four controls and peptides JC5 and JC5a.

C57BL6/J mice = experiment: Murine model of acute myocardial infarction (permanent LAD occlusion), echocardiography and heart weight/tibia length; type: in vivo, mouse; details: for average day 2 to day 28 Δ ejection fraction: change from day 2 to day 28; for day 28 ejection fraction / decrease in ESV versus PBS (MI) cohort (mean diff.) / mean heart weight/tibia length / mean end systolic volume (ESV) at day 28 / mean end diastolic volume (EDV) at day 28: mice; for day 28 ejection fraction: 28 days post MI, 60 μg/kg PDGF−AB or 32.50 mg/kg peptide via implanted minipump, mean (±SD), PBS 26.89%; for decrease in ESV versus PBS (MI) cohort (mean diff.) / mean heart weight/tibia length / mean end systolic volume (ESV) at day 28 / mean end diastolic volume (EDV) at day 28: day 28 post MI; for mean heart weight/tibia length: PBS 0.01913; for mean end systolic volume (ESV) at day 28 / mean end diastolic volume (EDV) at day 28: minipump; for mean end systolic volume (ESV) at day 28: PBS 116.6 μL; for mean end diastolic volume (EDV) at day 28: PBS 155.9 μL
Description: FIG. 9: Improved Cardiac function at Day 28 Post Myocardial Infarction. […] C) A decrease in end diastolic volumes was also observed in PDGF−AB (p=0.0016) and JC5 (p=0.0185) treated mice versus PBS. […] E) Timeline of mean EF per treatment group. Baseline indicates the pre-infarct EF per group. Day 2 and day 28 indicates days post infarct. A-C) Error bars represent ±SD. D) Data presented as median ±minimum and maximum values. One way ANOVA comparing all groups to the PBS vehicle control group (n=10/11).
FIG. 11: Decreased Heart Weight/Tibia Length in Mice Treated with JC5. […] Error bars represent ±SD.
Cardiac function was monitored using echocardiography with a post MI baseline at day 2 and a day 28 end point followed by tissue collection and calculation of heart weight divided by tibia length. Mice were randomised into treatment groups receiving either 60 μg/kg of the positive control recombinant human PDGF−AB, 32.50 mg/kg of novel mimetic peptide JC5, 32.50 mg/kg of novel mimetic peptide JC5a, or phosphate buffered saline (PBS) as a vehicle control, via implanted minipump, at the time of infarction. In addition to this sham controls were included using non-infarcted healthy mice receiving either 32.50 mg/kg of novel mimetic peptide JC5 or 32.50 mg/kg of novel mimetic peptide JC5a.
Left ventricular ejection fraction (LVEF) is directly proportionate to the difference between left ventricle end diastolic volume and the left ventricular end systolic volume (LVEDV-LVESV) and inversely proportionate to left ventricular end diastolic volume (LVEDV). The value is created by the following equation LVEF=(LVEDV-LVESV)/LVEDV. Increased end diastolic volume (EDV) indicates possible dilation of the ventricle whilst increased end systolic volume (ESV) indicates a possible decrease in contractile function. In mice treated with positive control PDGF−AB (MI) and novel mimetic peptide JC5 (MI) there was a significant decrease in both ESV and EDV at day 28 when compared to the vehicle control, PBS (MI), cohort. The decreased ESV of the PDGF−AB (MI) cohort at day 28 aligned with what was expected of the positive control with a mean ESV of 55.04 μL (±23.66), […] (mean diff.) less than the PBS (MI) cohort (p=0.0003). […] These were both a significant decrease from the PBS (MI) cohort with a mean EDV of 155.9 μL (±47.15) (JC5 p=0.0185, PDGF−AB p=0.0016).

PDGF receptor = biological target: T1, PDGF receptor (Mus musculus, UniProt P05622); experiment: Western blot for phosphorylation of ERK in C2C12 cells (PDGF receptor activation); type: cell-based; details: for phosphorylation of ERK (pERK): 10 ng/ml PDGF, 1 μg/ml peptide, vs no treatment and AG1296+PDGF−AB controls
T1 construct: Phosphorylation of ERK following treatment of C2C12 Cells with PDGF and JC5; endogenous in cells; host or cells: C2C12 mouse myoblasts
Description: FIG. 5. Phosphorylation of ERK following treatment of C2C12 Cells with PDGF and JC5. Western blots for total (ERK) and phosphorylated ERK (pERK) at 42 and 44 kDa show an increase in phosphorylation following treatment with 10 ng/ml PDGF−BB and 1 μg/ml of JC5. FIG. 6. Phosphorylation of ERK following treatment of C2C12 Cells with PDGF and JC5a. Western blots for total (ERK) and phosphorylated ERK (pERK) at 42 and 44 kDa show an increase in phosphorylation 10 minutes post treatment with 10 ng/ml PDGF−BB and 1 μg/ml of novel mimetic peptide JC5a. JC5a maintained this increased phosphorylation of ERK at 30 minutes post treatment. PDGF receptor activation takes place via autophosphorylation of tyrosine […] residues at key sites throughout the intracellular domain. Autophosphorylation engages different signaling pathways, including ERK (MAPK) which participates in proliferation, cell survival, angiogenesis, and chemotactic activity of cells. Phosphorylation of ERK indicates successful activation of the PDGF receptor.

T1 sequence (P05622 32-1098): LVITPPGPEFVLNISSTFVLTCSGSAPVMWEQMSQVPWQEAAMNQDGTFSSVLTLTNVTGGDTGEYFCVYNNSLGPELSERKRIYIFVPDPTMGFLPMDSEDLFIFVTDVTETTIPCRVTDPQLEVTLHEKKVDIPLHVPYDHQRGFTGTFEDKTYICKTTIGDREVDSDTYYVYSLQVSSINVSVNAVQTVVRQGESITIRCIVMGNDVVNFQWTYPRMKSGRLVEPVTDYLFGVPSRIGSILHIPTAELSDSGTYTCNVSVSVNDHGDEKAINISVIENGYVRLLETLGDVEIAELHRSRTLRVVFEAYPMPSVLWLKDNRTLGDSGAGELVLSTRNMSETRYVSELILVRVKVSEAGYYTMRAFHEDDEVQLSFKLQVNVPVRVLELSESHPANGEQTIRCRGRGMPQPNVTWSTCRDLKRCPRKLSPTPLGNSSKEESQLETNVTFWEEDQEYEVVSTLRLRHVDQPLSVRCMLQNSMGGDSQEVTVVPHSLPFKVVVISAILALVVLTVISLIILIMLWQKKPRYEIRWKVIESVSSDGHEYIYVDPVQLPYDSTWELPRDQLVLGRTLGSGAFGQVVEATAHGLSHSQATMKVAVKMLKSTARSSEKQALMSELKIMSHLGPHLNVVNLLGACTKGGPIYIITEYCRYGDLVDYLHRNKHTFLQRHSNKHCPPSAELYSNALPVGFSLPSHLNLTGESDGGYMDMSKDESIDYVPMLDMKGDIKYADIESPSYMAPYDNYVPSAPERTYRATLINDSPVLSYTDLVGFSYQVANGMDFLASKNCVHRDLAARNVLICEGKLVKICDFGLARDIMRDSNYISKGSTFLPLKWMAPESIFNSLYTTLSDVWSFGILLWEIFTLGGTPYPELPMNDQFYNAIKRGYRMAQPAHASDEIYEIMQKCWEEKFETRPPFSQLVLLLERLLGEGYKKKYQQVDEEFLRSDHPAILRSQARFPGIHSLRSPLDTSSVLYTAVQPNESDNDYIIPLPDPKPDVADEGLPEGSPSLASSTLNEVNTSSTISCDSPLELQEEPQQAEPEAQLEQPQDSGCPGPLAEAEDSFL

Compound	collagen gel contracted to % of its initial surface area (C2C12 mouse myoblasts)	difference in collagen gel area versus negative control AG1296 co-treated with PDGF−AB (Mean Diff.) (C2C12 mouse myoblasts)	difference in collagen gel area versus no treatment control (Mean Diff.) (C2C12 mouse myoblasts)	average day 2 to day 28 Δ ejection fraction (C57BL6/J mice; mice post MI)	day 28 ejection fraction (C57BL6/J mice)	decrease in ESV versus PBS (MI) cohort (mean diff.) (C57BL6/J mice)	mean heart weight/tibia length (C57BL6/J mice)	mean end systolic volume (ESV) at day 28 (C57BL6/J mice)	mean end diastolic volume (EDV) at day 28 (C57BL6/J mice)	phosphorylation of ERK (pERK) (PDGF receptor)	day 2 to day 28 change in ejection fraction greater than PBS (MI) (mean diff.) (C57BL6/J mice; mice post MI, vs PBS vehicle control)	phosphorylation of ERK (pERK) at 30 minutes post treatment (PDGF receptor; 1 μg/ml JC5a, 30 minutes)
PDGF Loop III dimer HSA (CVRKIEIVRKK)2(Peg3)2EYEK(Palm)EYE-C′ [JC5]	23.01%	32.23%	18.26%	6.686%	42.06%	49.58 µL	0.01462	67.01 µL	108.6 µL	phosphorylation of ERK (pERK) can be seen		
CCCCCCCCCCCCCCCC(=O)NCCCC[C@H](NC(=O)[C@H](CCC(=O)O)NC(=O)[C@H](Cc1ccc(O)cc1)NC(=O)[C@@H](CCC(=O)O)NC(=O)CCOCCOCCOCCNC(=O)CCOCCOCCOCCNC(=O)[C@@H](CCCCN)NC(=O)[C@@H](CCCCN)NC(=O)[C@@H](CCCNC(=N)N)NC(=O)[C@@H](NC(=O)[C@@H](NC(=O)[C@H](CCC(=O)O)NC(=O)[C@@H](NC(=O)[C@H](CCCCN)NC(=O)[C@@H](CCCNC(=N)N)NC(=O)[C@H](NC(=O)[C@H](N)CSSC[C@@H](N)C(=O)N[C@@H](C(=O)N[C@H](CCCNC(=N)N)C(=O)N[C@@H](CCCCN)C(=O)N[C@H](C(=O)N[C@@H](CCC(=O)O)C(=O)N[C@H](C(=O)N[C@H](C(=O)N[C@H](CCCNC(=N)N)C(=O)N[C@H](CCCCN)C(=O)N[C@H](CCCCN)C(=O)NCCOCCOCCOCCC(=O)NCCOCCOCCOCCC(=O)N[C@H](CCC(=O)O)C(=O)N[C@@H](Cc1ccc(O)cc1)C(=O)N[C@@H](CCC(=O)O)C(=O)N[C@@H](CCCCNC(=O)CCCCCCCCCCCCCCC)C(=O)N[C@@H](CCC(=O)O)C(=O)N[C@@H](Cc1ccc(O)cc1)C(=O)N[C@@H](CCC(=O)O)C(N)=O)C(C)C)[C@H](C)CC)[C@@H](C)CC)C(C)C)C(C)C)[C@@H](C)CC)[C@H](C)CC)C(C)C)C(=O)N[C@@H](CCC(=O)O)C(=O)N[C@@H](Cc1ccc(O)cc1)C(=O)N[C@@H](CCC(=O)O)C(N)=O [JC5a, PDGF Loop III dimer USA dimer (CVRKIEIVRKK)2(Peg3)2(EYEK(Palm)EYE)2-C′]	33.28%	21.96%		10.82%	39.24%					phosphorylation of ERK (pERK) can be seen	18.02%	preserved phosphorylation of ERK (pERK)
PDGF−AB: recombinant human PDGF−AB, AB heterodimer of recombinant PDGF, positive control	22.46%	32.79%	18.82%	7.104%	43.44%	61.54 µL	0.01344	55.04 µL	93.75 µL	pERK is induced by PDGF−BB but not PDGF−AB		
